Data reported in ChEMBL document CHEMBL1149860, “Synthesis and neuropharmacological characterization of 2-O-substituted apomorphines” (Bioorg Med Chem, 2008).

What was measured:
[1] = target: T1, D(2) dopamine receptor (Rattus norvegicus, UniProt P61169); assay: Displacement of [3H]raclopride from rat dopamine D2(short) receptor expressed in CHOK1 cells; assay type: cell-based, CHO-K1
[2] = target: T1, D(2) dopamine receptor; assay: Agonist activity at rat dopamine D2(short) receptor expressed in CHOK1 cells by [35S]GTPgammaS binding assay; assay type: functional, cell-based, CHO-K1
[3] = target: D(2) dopamine receptor (Rattus norvegicus) (UniProt P61169); assay: Agonist activity at rat dopamine D2(short) receptor expressed in CHOK1 cells by [35S]GTPgammaS binding assay relative to quinpirole; assay type: functional, cell-based; details: CHO-K1
D(2) dopamine receptor (Rattus norvegicus), sequence (P61169 whole entry): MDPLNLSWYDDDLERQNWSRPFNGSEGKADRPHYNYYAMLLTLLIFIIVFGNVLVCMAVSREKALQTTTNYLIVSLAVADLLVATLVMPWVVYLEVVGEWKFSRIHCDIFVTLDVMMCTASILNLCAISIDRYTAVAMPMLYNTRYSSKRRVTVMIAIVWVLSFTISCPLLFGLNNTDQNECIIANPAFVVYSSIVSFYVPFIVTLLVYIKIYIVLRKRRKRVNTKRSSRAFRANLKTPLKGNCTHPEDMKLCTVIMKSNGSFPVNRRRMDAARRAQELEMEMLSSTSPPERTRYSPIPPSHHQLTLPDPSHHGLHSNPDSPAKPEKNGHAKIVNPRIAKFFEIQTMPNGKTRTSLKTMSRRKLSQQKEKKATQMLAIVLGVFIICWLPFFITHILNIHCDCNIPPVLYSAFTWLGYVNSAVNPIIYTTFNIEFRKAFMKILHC

[4] = target: D(1A) dopamine receptor (Mus musculus, UniProt Q61616); assay: Displacement of [3H]SCH23390 from dopamine D1 receptor in mouse Ltk- fibroblast cells; assay type: cell-based
D(1A) dopamine receptor, sequence (Q61616 whole entry): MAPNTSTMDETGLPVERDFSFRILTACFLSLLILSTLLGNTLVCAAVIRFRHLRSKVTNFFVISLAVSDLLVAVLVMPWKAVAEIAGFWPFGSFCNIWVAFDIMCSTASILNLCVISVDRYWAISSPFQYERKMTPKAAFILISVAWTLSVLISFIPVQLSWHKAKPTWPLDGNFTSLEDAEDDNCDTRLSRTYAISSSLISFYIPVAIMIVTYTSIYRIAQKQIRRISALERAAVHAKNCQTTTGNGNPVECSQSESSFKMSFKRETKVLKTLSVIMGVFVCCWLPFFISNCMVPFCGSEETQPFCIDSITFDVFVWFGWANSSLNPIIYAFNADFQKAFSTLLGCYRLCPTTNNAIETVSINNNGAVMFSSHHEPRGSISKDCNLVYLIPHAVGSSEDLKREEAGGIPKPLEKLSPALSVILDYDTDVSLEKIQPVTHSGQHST

[5] = target: D(2) dopamine receptor (Homo sapiens, UniProt P14416); assay: biochemical
D(2) dopamine receptor (Homo sapiens, UniProt P14416), sequence (P14416 whole entry): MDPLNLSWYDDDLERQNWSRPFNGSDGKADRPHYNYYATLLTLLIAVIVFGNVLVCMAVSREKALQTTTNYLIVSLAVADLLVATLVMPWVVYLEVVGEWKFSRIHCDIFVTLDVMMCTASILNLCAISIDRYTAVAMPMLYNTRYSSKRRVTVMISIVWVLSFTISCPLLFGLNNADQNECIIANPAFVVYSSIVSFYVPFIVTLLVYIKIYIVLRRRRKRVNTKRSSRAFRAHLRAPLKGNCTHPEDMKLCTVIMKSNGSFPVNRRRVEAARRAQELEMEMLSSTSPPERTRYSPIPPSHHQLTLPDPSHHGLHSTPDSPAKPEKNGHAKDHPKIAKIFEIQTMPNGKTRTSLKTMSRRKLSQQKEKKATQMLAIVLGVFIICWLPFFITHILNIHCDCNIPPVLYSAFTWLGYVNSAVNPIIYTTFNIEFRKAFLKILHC
Description: Displacement of [3H]raclopride from human cloned dopamine D2 receptor expressed in CHO cell membrane

[6] = target: T1, D(2) dopamine receptor; assay: Displacement of [3H]raclopride from dopamine D2 receptor in rat striatal membrane; assay type: cell membranes, Striatum

T1 sequence (P61169 whole entry): as the sequence (P61169 whole entry) above

SMILES	Ki [1] [nM]	EC50 [2] [nM]	Efficacy [3] [%]	Ki [4] [nM]	Ki [5] [nM]	Ki [6] [nM]
CN1CCc2cc(OCCOc3cc4c5c(c3)-c3c(ccc(O)c3O)C[C@H]5N(C)CC4)cc3c2[C@H]1Cc1ccc(O)c(O)c1-3	345	308	18	5200	–	–
CCOc1cc2c3c(c1)-c1c(ccc(O)c1O)C[C@H]3N(C)CC2	44	55	70	2900	–	–
CN1CCc2cc(-c3ccccc3)cc3c2[C@H]1Cc1ccc(O)c(O)c1-3	–	–	–	–	88	–
CCCCOc1cc2c3c(c1)-c1c(ccc(O)c1O)C[C@H]3N(C)CC2	60	58	57	2100	–	–
CN1CCc2cc(OCCOCCO)cc3c2[C@H]1Cc1ccc(O)c(O)c1-3	587	939	58	7600	–	–
CN1CCc2cc(F)cc3c2[C@H]1Cc1ccc(O)c(O)c1-3	–	–	–	–	–	0.43
CN1CCc2cc(N)cc3c2[C@H]1Cc1ccc(O)c(O)c1-3	–	–	–	–	–	19.9
CN1CCc2cc(OCCOCCOc3cc4c5c(c3)-c3c(ccc(O)c3O)C[C@H]5N(C)CC4)cc3c2[C@H]1Cc1ccc(O)c(O)c1-3	17200	> 10000	–	> 10000	–	–
CCCOc1cc2c3c(c1)-c1c(ccc(O)c1O)C[C@H]3N(C)CC2	75	76	71	3500	–	–
CN1CCc2cc(-c3ccc(O)cc3)cc3c2[C@H]1Cc1ccc(O)c(O)c1-3	–	–	–	–	3.8	–
CN1CCc2cc(OCCO)cc3c2[C@H]1Cc1ccc(O)c(O)c1-3	347	315	19	5300	–	–
COc1cc2c3c(c1)-c1c(ccc(O)c1O)CC3N(C)CC2 (stereo unspecified)	74	114	66	2600	–	–
CSc1cc2c3c(c1)-c1c(ccc(O)c1O)C[C@H]3N(C)CC2	–	–	–	–	–	54.7
